From paper PMC3641831 (Biochemistry, 2010) come the findings set out here.

The experiment deals with poly(dA)•2poly(dT). In words: UV denaturation, triplex transition. In kind it is binding.

For `c1cc2ccc3cccc4ccc(c1)c2c34` [Compound 5, reference compound], the “stabilization of DNA triplex” value is given as “does not stabilize”.
